Experimental data: ChEMBL document CHEMBL1159266, “Antineoplastic agents, 325. Isolation and structure of the human cancer cell growth inhibitory cyclic octapeptides phakellistatin 10 and 11 from Phakellia sp” (1995)
In brackets after ≈: the same amount, converted by molar mass. Where a SMILES comes first, the peptide text is derived from it.

Key:
Assay type in all cases: functional
[1] = test system: L1210; test: Cytotoxicity against mouse L1210 cells; settings: read-out: ED50 (the source's name)
[2] = test system: P388; test: Cytotoxicity against mouse P388 cells; settings: read-out: ED50 (the source's name)
[3] = Growth inhibition of human NCI60 cells

Row | Structure (SMILES) | EC50 [1] [µg/mL] | EC50 [2] [µg/mL] | GI50 [3] [nM]
1 | CC(C)[C@@H]1NC(=O)[C@H](CCCCN)NC(=O)[C@H](Cc2c[nH]c3ccccc23)NC(=O)[C@H](Cc2ccccc2)NC(=O)[C@H](CC(=O)O)NC(=O)[C@H](Cc2ccc(O)cc2)NC(=O)[C@@H]2CCCN2C(=O)[C@H](Cc2ccc(O)cc2)NC1=O [HYMENAMIDE J] (cyclo(DFWKVYPY)) | 2.6 (≈ 2.37 µM) | – | –
2 | CC[C@H](C)[C@@H]1NC(=O)[C@H](Cc2ccccc2)NC(=O)[C@@H]2CCCN2C(=O)[C@H](Cc2ccccc2)NC(=O)[C@@H]2CCCN2C(=O)[C@H](CCC(N)=O)NC(=O)[C@@H]2CCCN2C(=O)[C@H](Cc2ccccc2)NC1=O [PHAKELLI STATIN 11] (cyclo(FIFPQPFP)) | – | 0.2 (≈ 0.205 µM) | 132
3 | CC(C)C[C@@H]1NC(=O)[C@@H]2CCCN2C(=O)[C@H](C(C)C)NC(=O)[C@H](Cc2c[nH]c3ccccc23)NC(=O)[C@@H]2CCCN2C(=O)[C@H](CC(C)C)NC(=O)[C@@H]2CCCN2C(=O)[C@H]([C@@H](C)O)NC1=O [HYMENAMIDE H] (cyclo(LPWVPLTP)) | 6.3 (≈ 6.97 µM) | – | –
4 | CC[C@H](C)[C@@H]1NC(=O)[C@@H]2CCCN2C(=O)[C@H]([C@@H](C)O)NC(=O)[C@H](CC(C)C)NC(=O)[C@@H]2CCCN2C(=O)[C@H](C(C)C)NC(=O)[C@H](Cc2ccc(O)cc2)NC(=O)[C@@H]2CCCN2C1=O [PHAKELLISTATIN 10] (cyclo(IPYVPLTP)) | – | 2.1 (≈ 2.38 µM) | 790
